Where two headings read alike, the source gives them in different places.
Key:
[1] = Pharmacokinetic evaluation in rats; type: in vivo, Male SD rats; conditions: rat; for AUC(0-inf) / half-life / bioavailability / Cmax: male, SD, plasma; for AUC(0-inf): read-out: Area under curve AUC0-inf; for half-life: read-out: Half-life t½ (converted); for bioavailability / Bioavailability F: Oral 10 mg/kg vs I.V. 5 mg/kg; for bioavailability: read-out: Bioavailability F; for Cmax: read-out: Blood Drug Level Cmax
Description: Pharmacokinetic Evaluation
Male SD rats (purchased from Vital River Laboratory Animal Technology Co., Ltd.), each weighing 180 to 240 g, were fasted overnight but allowed access to water. Three rats were administered by oral gavage at a dose of 10 mg/kg, and three rats were intravenously injected at 5 mg/kg. For the oral administration group, the compounds were formulated into 1.0 mg/mL suspensions with a 0.5% methylcellulose (MC) solution, and 200 μl blood was sampled before administration and 30 min, 1 h, 2 h, 4 h, 6 h, 8 h, 12 h and 24 h after administration. For the intravenous injection (I.V.) group, the compounds were formulated into 1.0 mg/ml solutions with physiological saline, and blood was sampled before administration and 5 min, 15 min, 30 min, 1 h, 2 h, 4 h, 8 h, 12 h and 24 h after administration. The blood samples were all anticoagulated with heparin, and centrifuged at 5500 rpm for 10 min to collect plasma, which was stored at −20° C. 10 μl plasma of rats for each of the time points was mixed with a 500 μl acetonitrile solution containing an internal standard, vortexed for 10 min, and centrifuged at 3700 rpm for 18 min. 50 μl of the supernatant was mixed with 100 μl water and vortexed for 10 min. 5 μl of the mixture was subjected to an LC-MS/MS analysis to determine the blood drug level of the parent drugs. The main pharmacokinetic parameters were analyzed using the software WinNonlin 6.3 at the non-compartment mode.

[2] = tested on: pain in diabetic peripheral neuropathy; conditions: patients with diabetic peripheral neuropathy; cited from earlier work

Compound	AUC(0-inf) ([1]; iv, 5 mg/kg, I.V., 5 mg/kg) [ng·h/mL]	half-life ([1]; iv, 5 mg/kg, I.V., 5 mg/kg) [h]	bioavailability ([1]; po, 10 mg/kg) [%]	AUC(0-inf) ([1]; po, 10 mg/kg, Oral, 10 mg/kg) [ng·h/mL]	Cmax ([1]; po, 10 mg/kg, Oral, 10 mg/kg) [ng/mL]	half-life ([1]; po, 10 mg/kg, Oral, 10 mg/kg) [h]	Area under curve AUC0-inf ([1]; I.V., 5 mg/kg) [ng·h/mL]	Half-life t½ ([1]; I.V., 5 mg/kg) [h]	Bioavailability F [1] [%]	Area under curve AUC0-inf ([1]; Oral, 10 mg/kg) [ng·h/mL]	Blood Drug Level Cmax ([1]; Oral, 10 mg/kg) [ng/mL]	Half-life t½ ([1]; Oral, 10 mg/kg) [h]	proportion of patients whose pain is relieved to a great extent [2]
NC[C@@]1(CC(=O)O)[C@@H]2C[C@@H]3CC[C@H]1[C@H]2C3 (racemic) [Example 1, (±)-2-((1R,2R,3S,6R,8R)-2-(aminomethyl)tricyclo[4.2.1.0^3,8]nonan-2-yl)acetic acid]	6800	1.3	95	12900	3000	2.3	–	–	–	–	–	–	–
NC[C@@]1(CC(=O)O)[C@@H]2C[C@@H]3CC[C@H]1[C@H]2C3 (racemic) [Example 2, (±)-2-((1R,2R,3S,6R,8R)-2-(aminomethyl)tricyclo[4.2.1.0^3,8]nonan-2-yl)acetic acid benzenesulfonic acid (1:1)]	–	–	–	–	–	–	8147	1.40	83.0	13473	3789	1.40	–
NC[C@@]1(CC(=O)O)C2CC[C@H]3C[C@@H]2[C@@H]1C3 (single isomer, unassigned) [Example 5]	8210	2.4	87	14200	4490	1.6	–	–	–	–	–	–	–
NCC1(CC(=O)O)C2CCC3CC2C1C3 (stereo not shown) [Example 6]	8210	2.4	83.2	13700	3710	1.4	–	–	–	–	–	–	–
NC[C@@]1(CC(=O)O)[C@@H]2C[C@H]3C[C@@H]2[C@@H]1C3 [Example 7, 2-(4-(aminomethyl)tricyclo[3.2.1.0^3,6]octan-4-yl)acetic acid]	11800	1.2	97	23000	9140	1.1	–	–	–	–	–	–	–
NC[C@@]1(CC(=O)O)[C@@H]2C[C@H]3C[C@@H]2[C@@H]1C3 [Example 8, 2-(4-(aminomethyl)tricyclo[3.2.1.0^3,6]octan-4-yl)acetic acid benzenesulfonic acid (1:1)]	–	–	–	–	–	–	11788	1.20	107.9	25443	8004	2.10	–
NCC1(CC(=O)O)CCCCC1 [gabapentin]	–	–	–	–	–	–	–	–	–	–	–	–	approximately 60%

Reference: patent US10654794B2, “Fused tricyclic Γ-amino acid derivative, preparation method therefor, and medical use thereof” (SICHUAN HAISO PHARMACEUTICAL CO., LTD., priority 2016, dated 2020)
